Reference: ChEMBL document CHEMBL1221340, “Lanostane triterpenes from Ganoderma lucidum suppress the adipogenesis in 3T3-L1 cells through down-regulation of SREBP-1c” (Bioorg Med Chem Lett, 2010)
Active and inactive are the calls of the source. No cut-off for these calls is given here.

Columns and labels:
[1] = tested on: 3T3-L1; assay: Inhibition of adipogenesis in mouse 3T3L1 cells assessed as reduction of ACC mRNA expression at 80 ug/ml after 8 days by RT-PCR analysis; type: functional, cell-based
[2] = tested on: 3T3-L1; assay: Cytotoxicity against mouse 3T3L1 cells assessed as cell viability at up to 40 ug/ml; type: cell-based
[3] = tested on: 3T3-L1; assay: Inhibition of adipogenesis in mouse 3T3L1 cells assessed as reduction of SREBP1c mRNA expression at 80 ug/ml after 8 days by RT-PCR analysis relative to control; type: functional; conditions: 3T3-L1, 192 h
[4] = tested on: 3T3-L1; assay: Inhibition of adipogenesis in mouse 3T3L1 cells assessed as reduction of FAS mRNA expression at 80 ug/ml after 8 days by RT-PCR analysis; type: functional, cell-based
[5] = tested on: 3T3-L1; assay: Inhibition of adipogenesis in mouse 3T3L1 cells assessed as reduction of GPDH activity at 80 ug/ml after 8 days; type: functional
[6] = tested on: 3T3-L1; assay: Inhibition of adipogenesis in mouse 3T3L1 cells assessed as reduction of lipid accumulation at 40 ug/ml after 8 days relative to control; type: functional; conditions: 3T3-L1, 192 h
[7] = tested on: 3T3-L1; assay: Inhibition of adipogenesis in mouse 3T3L1 cells assessed as reduction of triglyceride accumulation at 80 ug/ml after 8 days; type: functional
[8] = tested on: 3T3-L1; assay: Inhibition of adipogenesis in mouse 3T3L1 cells assessed as reduction of SREBP1c protein expression at 80 ug/ml after 8 days by Western blotting analysis; type: functional, cell-based
[9] = tested on: 3T3-L1; assay: Cytotoxicity against mouse 3T3L1 cells assessed as cell viability at up to 80 ug/ml; type: cell-based

Structure (SMILES) | Activity [2] | inhibition [5] | inhibition [7] | other results
CCCCOC(=O)CC[C@@H](C)[C@H]1CC(=O)[C@@]2(C)C3=C(C(=O)C[C@]12C)[C@@]1(C)CC[C@H](O)C(C)(C)[C@@H]1C[C@@H]3O [BUTYL LUCIDENATE N] | Non-toxic | Active | Active | inhibition [1]: Active; inhibition at 80 µg/mL [3]: 38%; inhibition [4]: Active; inhibition at 40 µg/mL [6]: 56%; inhibition [8]: Active
CCCCOC(=O)CC[C@@H](C)[C@H]1CC(=O)[C@@]2(C)C3=C(C(=O)C[C@]12C)[C@@]1(C)CCC(=O)C(C)(C)[C@@H]1C[C@@H]3O [BUTYL LUCIDENATE A] | Non-toxic | – | – | inhibition at 40 µg/mL [6]: 45%
CCCCOC(=O)C(C)CC(=O)C[C@@H](C)[C@H]1C[C@H](O)[C@@]2(C)C3=C(C(=O)C[C@]12C)[C@@]1(C)CCC(=O)C(C)(C)[C@@H]1C[C@@H]3O (stereo partly specified) [BUTYL GANODERATE A] | Non-toxic | Active | Active | inhibition [1]: Active; inhibition at 80 µg/mL [3]: 26%; inhibition [4]: Active; Activity [9]: Non-toxic; inhibition at 40 µg/mL [6]: 48%; inhibition [8]: Active
COC(=O)[C@H](C)CC(=O)C[C@@H](C)[C@H]1C[C@H](O)[C@@]2(C)C3=C(C(=O)C[C@]12C)[C@@]1(C)CCC(=O)C(C)(C)[C@@H]1C[C@@H]3O | Non-toxic | – | – | Activity [9]: Non-toxic
C[C@H](CCC(=O)O)[C@H]1CC(=O)[C@@]2(C)C3=C(C(=O)C[C@]12C)[C@@]1(C)CC[C@H](O)C(C)(C)[C@@H]1C[C@@H]3O [LUCIDENIC ACID N] | Non-toxic | Active | Active | –
COC(=O)CC[C@@H](C)[C@H]1CC(=O)[C@@]2(C)C3=C(C(=O)C[C@]12C)[C@@]1(C)CCC(=O)C(C)(C)[C@@H]1CC3=O [METHYL LUCIDENATE F] | Non-toxic | – | – | –
CCCCOC(=O)[C@H](C)CC(=O)C[C@@H](C)[C@H]1CC(=O)[C@@]2(C)C3=C(C(=O)C[C@]12C)[C@@]1(C)CC[C@H](O)C(C)(C)[C@@H]1C[C@@H]3O [BUTYL GANODERATE B] | Non-toxic | Active | Active | inhibition at 40 µg/mL [6]: 41%
COC(=O)CC[C@@H](C)[C@H]1CC(=O)[C@@]2(C)C3=C(C(=O)[C@@H](OC(C)=O)[C@]12C)[C@@]1(C)CC[C@H](O)C(C)(C)[C@@H]1CC3=O [METHYL LUCIDENATE E2] | Non-toxic | – | – | –
COC(=O)C(C)CC(=O)C[C@@H](C)[C@H]1CC(=O)[C@@]2(C)C3=C(C(=O)C[C@]12C)[C@@]1(C)CC[C@H](O)C(C)(C)[C@@H]1C[C@@H]3O (stereo partly specified) [METHYL GANODERATE B] | Non-toxic | Active | Active | –
COC(=O)CC[C@@H](C)[C@H]1CC(=O)[C@@]2(C)C3=C(C(=O)C[C@]12C)[C@@]1(C)CCC(=O)C(C)(C)[C@@H]1C[C@@H]3O [METHYL LUCIDENATE A] | Non-toxic | – | – | –
COC(=O)C(C)CC(=O)C[C@@H](C)[C@H]1CC(=O)[C@@]2(C)C3=C(C(=O)C[C@]12C)[C@@]1(C)CCC(=O)C(C)(C)[C@@H]1C[C@@H]3O (stereo partly specified) [METHYL GANODERATE D] | Non-toxic | – | – | –
CC(CC(=O)C[C@@H](C)[C@H]1CC(=O)[C@@]2(C)C3=C(C(=O)C[C@]12C)[C@@]1(C)CC[C@H](O)C(C)(C)[C@@H]1C[C@@H]3O)C(=O)O (stereo partly specified) [GANODERIC ACID B] | Non-toxic | Active | Active | –
C[C@H](CC(=O)C[C@@H](C)[C@H]1C[C@H](O)[C@@]2(C)C3=C(C(=O)C[C@]12C)[C@@]1(C)CCC(=O)C(C)(C)[C@@H]1C[C@@H]3O)C(=O)O [GANODERIC ACID A] | Non-toxic | – | – | Activity [9]: Non-toxic; inhibition at 80 µg/mL ([5]; 3T3-L1, 192 h): 48%; inhibition at 80 µg/mL ([7]; 3T3-L1, 192 h): 36%
COC(=O)CC[C@@H](C)[C@H]1CC(=O)[C@@]2(C)C3=C(C(=O)[C@@H](OC(C)=O)[C@]12C)[C@@]1(C)CC[C@H](O)C(C)(C)[C@@H]1C[C@@H]3O [METHYL LUCIDENATE P] | Non-toxic | – | – | –
CC(CC(=O)C[C@@H](C)[C@H]1C[C@H](O)[C@@]2(C)C3=C(C(=O)C[C@]12C)[C@@]1(C)CCC(=O)C(C)(C)[C@@H]1CC3)C(=O)O (stereo partly specified) [GANOLUCIDIC ACID A] | Non-toxic | – | – | –
COC(=O)C(C)CC(=O)C[C@@H](C)[C@H]1CC(=O)[C@@]2(C)C3=C(C(=O)[C@@H](OC(C)=O)[C@]12C)[C@@]1(C)CC[C@H](O)C(C)(C)[C@@H]1CC3=O (stereo partly specified) [METHYL GANODERATE H] | Non-toxic | – | – | –
C[C@H](CC(=O)C[C@@H](C)[C@H]1CC(=O)[C@@]2(C)C3=C(C(=O)C[C@]12C)[C@@]1(C)CCC(=O)C(C)(C)[C@@H]1CC3=O)C(=O)O [GANODERIC ACID E] | Non-toxic | – | – | –
